Values quoted from earlier work as cited in patent US20210060105A1, “GINKGO BILOBA EXTRACT COMPOSITE FORMULATION AND USE OF THE SAME” (priority 2019, published 2021).

Columns and labels:
[1] = increased from the original 49.7±3.6 mg/dL

CC1=C(/C=C/C(C)=C/C=C/C(C)=C/C=C/C=C(C)/C=C/C=C(C)/C=C/C2=C(C)C(=O)[C@@H](O)CC2(C)C)C(C)(C)C[C@H](O)C1=O [Astaxanthin, astaxanthin]
antioxidant ability relative to vitamin E (compared with vitamin E): 550 times | antioxidant ability relative to β-carotene (compared with β-carotene): 10 times | HDL in vivo after astaxanthin [1]: 66.5 ± 5.1 mg/dL
